The results in this text go back to paper PMC9088016, “Synthesis and biological evaluation of phosphatidylcholines with cinnamic and 3-methoxycinnamic acids with potent antiproliferative activity” (RSC Advances, 2018).

Experiment [1] deals with MV4-11 cells. Put plainly: Antiproliferative assay in vitro (MTT), 72 h. The format is cell-based, human. To be noted: Homo sapiens, MV4-11; leukaemia cells, MTT, 72 h exposure, mean ± SD. The method, then: (§1) Biophenotypic B myelomonocytic leukaemia MV4-11, human lung carcinoma A549, human breast carcinoma MCF-7, human colon carcinoma LoVo, its drug resistant line LoVo/DX, liver carcinoma HepG2, and normal mouse fibroblast BALB/3T3 cells were obtained from the American Type Culture Collection (Rockville, Maryland, USA). All lines are being maintained at the Institute of Immunology and Experimental Therapy, Wrocław, Poland. All cell lines were grown in a humid atmosphere at 37 °C with 5% CO2 and were cultured in media according to the method described before.[18]
(§2) Prior to usage, the compounds were dissolved in DMSO to the concentration of 25 or 50 mM, and subsequently diluted in the culture medium to reach the required concentrations (ranging from 5 to 625 μM).
(§3) Twenty-four hours before addition of the tested compounds, the cells were plated in 96-well plates (Sarstedt, USA) at a density of 10^4 cells per well. All cell lines were exposed to each tested phosphatidylcholines for 72 h. Cells were also exposed to the commercially available drugs cisplatin and doxorubicin. Cell lines were also exposed to the solvent used for the tested compounds (DMSO) at concentrations corresponding to those present in the tested agents' dilutions. For adherent cells, a SRB assay was performed and an MTT assay was performed for leukaemia cells.
This technique was applied for the cytotoxicity screening against leukemia cells. An assay was performed after 72 h exposure to varying concentrations (from 5 to 625 μM) of the tested agents. For the last 3–4 hours of incubation. 20 μL of MTT solution was added to each well (MTT: 3-(4,5-dimethylthiazol-2-yl)-2,5-diphenyl tetrazolium bromide; stock solution: 5 mg mL^−1, Sigma, Germany). The mitochondria of viable cells reduce the pale yellow MTT to a navy blue formazan: the more viable cells are present in a well, the more MTT will be reduced to formazan. When the incubation time was completed, 80 μL of the lysing mixture was added to each well (lysing mixture: 225 mL dimethylformamide, 67.5 g sodium dodecyl sulphate, and 275 mL of distilled water). After 24 h, when formazan crystals had been dissolved, the optical densities of the samples were read with a Multiskan RC photometer at 570 nm wavelength. Each compound in a given concentration was tested in triplicate in each experiment, which was repeated 3–5 times.
(§4) The results of the cytotoxic activity in vitro were expressed as IC50—the concentration of compound (in μM) that inhibits the proliferation rate of the tumor cells by 50% as compared to control untreated cells.

Another experiment deals with A549 cells. As to the kind of experiment: Antiproliferative assay in vitro (SRB), 72 h. It is filed as cell-based, human. To be noted: Homo sapiens, A549, lung cancer cells, 72 h exposure, mean ± SD, read-out: IC50 A-549. The method, then:
as §1, §2, §3
(§5) The cytotoxicity assay was performed after 72 h exposure of the cultured cells to varying concentrations (from 5 to 625 μM) of the tested agents. The cells attached to the plastic were fixed in situ by gently adding 50 μL per well of cold 50% TCA (trichloroacetic acid). The plates were incubated at 4 °C for 1 h and then washed five times with tap water. The background optical density was measured in the wells filled with culture medium, without the cells. The cellular material fixed with TCA was stained with 50 μL of 0.4% sulforhodamine B (SRB) dissolved in 1% acetic acid for 30 min. Unbound dye was removed by rinsing (4×) with 1% acetic acid. The protein-bound dye was extracted with 10 mM unbuffered Tris base for determination of the optical density (at 540 nm) in a computer-interfaced 96-well microtiter plate reader Multiskan RC photometer (Labsystems, Helsinki, Finland). Each compound in the given concentration was tested in triplicate in each experiment, which was repeated 3–5 times.
as §4

The subject of the next experiment is HepG2 cells. Put plainly: Antiproliferative assay in vitro (SRB), 72 h. To be noted: Homo sapiens, HepG2, liver cancer cells, 72 h exposure, mean ± SD. The format is cell-based, human. The method, then:
as §1, §2, §3, §5, §4

A further experiment deals with LoVo cells. Put plainly: Antiproliferative assay in vitro (SRB), 72 h. It is filed as cell-based, human. To be noted: Homo sapiens, LoVo, colon cancer cells, 72 h exposure, mean ± SD. The method, then:
as §1, §2, §3, §5, §4

The test system of a further experiment is LoVo/DX cells. As to the kind of experiment: Antiproliferative assay in vitro (SRB), 72 h. The format is cell-based, human. The method, then: as §1, §2, §3, §5, §4
Another experiment deals with MCF-7 cells. Put plainly: Antiproliferative assay in vitro (SRB), 72 h. It is filed as cell-based, human. To be noted: Homo sapiens, MCF7, breast cancer cells, 72 h exposure, mean ± SD. The method, then: as §1, §2, §3, §5, §4
Another experiment deals with BALB/3T3 cells. As to the kind of experiment: Antiproliferative assay in vitro (SRB), 72 h. The format is cell-based, mouse. To be noted: Mus musculus, BALB/3T3, normal mice fibroblast cells, 72 h exposure, mean ± SD. The method, then:
as §1, §2, §3, §5, §4

Experiment [2] concerns MV4-11 cells. As to the kind of experiment: Cell cycle analysis (propidium iodide, flow cytometry). The format is cell-based, human. To be noted: 50 μM, 72 h. The method, then:
For cell cycle analysis, the cells MV4-11 were treated with the tested compound 5a dissolved in DMSO at a concentration of 50 μM. The cells were treated also only by the DMSO for comparison. After 72 h of incubation, the cells (1 × 10^6) were trypsinized and rinsed with cold PBS. Washed cell pellets were fixed for 24 h in 70% ethanol at −20 °C. After fixation, the cells were washed twice with PBS once again and resuspended in PBS. Next, RNAse (8 μg mL^−1, Fermentas, Germany) was added and the cells were incubated for 1 h at 37 °C. The cells were then stained with propidium iodide (50 μg mL^−1, Sigma Aldrich, Germany) at 4 °C for 30 min and the cellular DNA content was analyzed by flow cytometry using a BD LSRFortessa cytometer (BD Bioscience, San Jose, USA). Compounds at each concentration were tested at least three times independently. The control in the assay was the cells exposed to DMSO at a concentration of 0.05%. Data were analyzed using ModFit 3.2 software (Verity Software, USA).

The subject of experiment [3] is MV4-11 cells. Put plainly: Determination of the mitochondrial membrane potential (JC-1, flow cytometry). The format is cell-based, human. To be noted: 50 μM, 72 h. The method, then: The loss of mitochondrial membrane potential was estimated using the fluorescent probe JC-1 (Sigma Aldrich, Germany). […] The cells were exposed to the tested compound 5a at a concentration of 50 μM. The MV4-11 cells (5 × 10^5) were washed in phosphate-buffered saline (PBS) containing 2% FBS. The pelleted cells were resuspended in 100 μL of the warm cultured medium with the addition of 10 μL of JC-1 (the final concentration of JC-1 was 3 μg mL^−1) and were then incubated for 30 min at 37 °C. Next, the cells were washed with 1 mL of PBS with 2% FBS and resuspended in 300 μL of PBS with 2% FBS. The mitochondrial membrane potential was analyzed by flow cytometry using BD LSRFortessa cytometry. Compounds at each concentration were tested at least three times independently. The control in the assay was the cells exposed to DMSO at a concentrations of 0.05%. Data were analyzed using Flowing software 2.5.1.

The test system of experiment [4] is MV4-11 cells. As to the kind of experiment: Cell death determination by Annexin V and PI staining. It is filed as cell-based, human. To be noted: 50 μM, 72 h. The method, then:
The MV4-11 cells were exposed to the test compound 5a at a concentration of 50 μM for 72 h. After incubation, the cells (2 × 10^5) were washed twice with PBS. APC-Annexin V (BD Pharmingen) was dissolved to the concentration of 1 mg mL^−1 in a binding buffer (HEPES buffer: 10 mM HEPES/NaOH), pH 7.4, 150 mM NaCl, 5 mM KCl, 1 mM MgCl2, 1.8 mM CaCl2, (IIET, Poland) and the cells were suspended in 200 μL of this 1 mg mL^−1 solution (freshly prepared each time). After the incubation in the dark (15 min) at room temperature, the solution (1 mg mL^−1) of propidium iodide (PI) was added prior to the analysis to give a final concentration of 0.1 mg mL^−1. Data acquisition was performed by flow cytometry using a BD LSRFortessa cytometer. Compound 5a was tested at least three times independently. The control in the assay was the cells exposed to DMSO at a concentration of 0.05%. Results were analyzed using Flowing software 2.5.1. […] Double-negative cells were live cells, PI+/Annexin V+ were late apoptotic or necrotic cells, and PI-/Annexin V+ were early apoptotic.

As to `CCCCCCCCCCCCCCCC(=O)OC[C@H](COP(=O)([O-])OCC[N+](C)(C)C)OC(=O)C=Cc1ccccc1` [Compound 5a, 1-Palmitoyl-2-cinnamoyl-sn-glycero-3-phosphocholine], the IC50 was 43.2 ± 9.9 µM in the experiment with MV4-11 cells [1]; 56.3 ± 0.4 µM in the experiment on A549 cells; 228 ± 30.6 µM in the experiment with HepG2 cells; 52.3 ± 5 µM in the experiment with LoVo cells; 56.3 ± 0.8 µM in the experiment on LoVo/DX cells (Homo sapiens, LoVo/DX, doxorubicin-resistant colon cancer cells, SRB, 72 h exposure, mean ± SD); 64.6 ± 3.4 µM with MCF-7 cells. This compound showed a half-maximal inhibitory concentration (IC50) in the experiment with BALB/3T3 cells of 114 ± 36.6 µM. In addition, the “Resistance index (RI)” value in the experiment on LoVo/DX cells (doxorubicin-resistant LoVo/DX cell line versus LoVo) stood at 1.08. Moreover, the “Effect on cell cycle” value in the experiment on MV4-11 cells [2] was “arrested cell cycle in the G2/M phase”. Further, the “Cells having a significantly lowered mitochondrial membrane potential (Ψm)” value in the experiment on MV4-11 cells [3] was “about 45%”. In the experiment on MV4-11 cells [4], the “Induction of early apoptotic, apoptotic or necrotic cell death” value was “lack of induction”.
